These results are taken from patent EP0600087A1, “METHOD AND KIT OF IN VITRO IRRITATION TEST” (priority 1991, dated 1993).

One data set has as its system rabbit. Briefly: Draize method, ocular irritation. In kind it is in vivo. As to conditions: for Draize score Ocular irritation: Table 1, Conc. of test substance 0.5%; for Actual evaluation: Table 3, Draize ocular irritation score used for the regression; for Found value: Table 4, measurements according to the Draize method. The source says:
The assay and evaluation as to whether or not a foreign substance gives harmful irritation to a living body which induces vital reactions, for example, inflammation, hemolysis, opacification, and swelling, are essential in the product development in the technical fields of cosmetics, medicines, and other medical materials and oleo chemicals where a particular substance is directly applied to the living body At the present time, experimental animals are mainly used for these assay and evaluation. In the tests, particularly in irritation tests, use is made of a skin irritation test (primary irritation and accumulating irritation), an ocular irritation test, a patch test, and a mucous membrane irritation test (tunica mucosa oris and urogenital mucosa membrane). For example, in the ocular irritation test, the Draize method, which uses a rabbit, is generally adopted. In this method, the ocular irritation by a test substance is assayed particularly through (1) the determination of the degree of clouding of the cornea, (2) the evaluation of the incidence of congestion or edema of the conjunctiva, and (3) the evaluation of the incidence of congestion or swelling of the iris.
The same test substance as that used above was subjected to a test according to the Draize method.

A short description of data set [1]: Estimate of Draize score by regression of HDR values (Example 3). The note with it: Draize score estimated by 17.61 + 0.624 1% HDR + 0.481 0.016% HDR. The source says: The results thus obtained were subjected to regression using the following associative equation to obtain the above-described correlation coefficient. 17.61 + 0.624 1% HDR + 0.481 0.016% HDR [formula] Consequently, a very good correspondence was observed even with evaluation by a plurality of concentrations.

The nature of data set [2]: Estimate of Draize score by regression of RBC and HDR values (Example 4). The note with it: estimated value based on the Draize method using the associative equation with RBC, 2% HDR, 0.25% HDR, 0.063% HDR. An excerpt: • Method 1: The procedure as described in Example 1 was repeated. • Method 2: The procedure as described in Example 2 was repeated.
The results obtained from the two methods were subjected to regression using the associative equation below: […]
Here, the calculated values are estimated values based on the Draize method using the above-described associative equation, and the found values are measurements according to the Draize method.

Where [3] appears, read: Table 1, Conc. of test substance 0.5%.

Read-outs that look alike come from different tables or passages of the source.

Regarding `CCCCCCCCOc1ccccc1` [Octyl phenyl ether], in the data set on rabbit, the “Draize score Ocular irritation” value turned out to be 8.7, the Actual evaluation came to 3.700 and the Found value turned out to be 8.7. Besides, the Estimated value in data set [1] is 17.610. Further, the Calculated value in data set [2] is given as 6.9685. Under setting [3], the “Draize score Primary ocular irritation” value stood at 0.2.

Take `CCCCCCCCCCCCCCCC[n+]1ccccc1` [Cetyl pyridinium chloride]: in the data set with rabbit, the “Draize score Ocular irritation” value amounted to 70, the Actual evaluation is reported as 70.000 and the Found value amounted to 35. Moreover, under “in vivo”, the “Draize score Primary ocular irritation” value turned out to be 4.0 and the “Draize score Primary skin irritation” value is listed as 4.0.

As to `CCCCCCCCCCCCOS(=O)(=O)[O-].[Na+]` [SDS, sodium dodecylsulfate], in the data set with rabbit, the “Draize score Ocular irritation” value amounted to 35.1, the Actual evaluation was 35.100 and the Found value is given as 70. The Estimated value in data set [1] was 43.331. Besides, the Calculated value in data set [2] was 70.5078. Further, the “Draize score Primary ocular irritation” value under setting [3] is recorded as 6.9.
